Where two headings read alike, the source gives them in different places.
Columns and labels:
[1] = target: T1, SFRP-1 (Homo sapiens, UniProt Q8N474); assay: Fluorescence polarization binding assay (competitive displacement of a probe compound from SFRP-1); conditions: fluorescence anisotropy, 45 nM SFRP-1, 20 nM probe;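 further: test compound competes with a fluorescent probe held by SFRP-1, seen as a drop in probe anisotropy after incubation in darkness, with anisotropy as function of rising compound dose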
T1 sequence (Q8N474 32-314): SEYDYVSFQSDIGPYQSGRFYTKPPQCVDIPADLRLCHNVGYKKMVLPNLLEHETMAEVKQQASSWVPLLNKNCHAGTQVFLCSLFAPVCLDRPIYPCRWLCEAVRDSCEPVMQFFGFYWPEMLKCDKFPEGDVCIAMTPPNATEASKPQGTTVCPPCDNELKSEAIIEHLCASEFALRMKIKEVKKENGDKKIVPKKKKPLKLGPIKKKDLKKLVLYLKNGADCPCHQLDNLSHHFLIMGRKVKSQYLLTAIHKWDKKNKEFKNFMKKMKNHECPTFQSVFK

[2] = target: T1, SFRP-1; assay: Cell-based assay for in vitro measurement of SFRP-1/SARP2 antagonist activity (U2OS cells co-transfected with 16x TCF-tk-Luciferase reporter, Wnt and hSFRP-1); conditions: for fold induction at 10 µM / fold induction at 15 µM: U2OS; for fold induction at 10 µM: read-out: Fold Induction with SFRP-1, U2OS cells, single dose 10 μM, luciferase reporter, fold induction over SFRP-1 control;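 on all read-outs here: U2OS cells co-transfected with a TCF-tk luciferase reporter, a Wnt vector, hSFRP-1 or empty vector and CMV-βgal, luciferase luminescence read in cell lysates alongside βgal activity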
[3] = read-out: Fold Induction with SFRP-1, Conc 15 μM, with SFRP-1, fold induction over SFRP-1 control, single dose
[4] = read-out: Fold Induction without SFRP-1, Conc 15 μM, without SFRP-1, single dose
[5] = read-out: Fold Induction with SFRP-1, Conc 15 μM, single dose, luciferase reporter, fold induction over SFRP-1 control, cells with SFRP-1
[6] = read-out: Fold Induction without SFRP-1, Conc 15 μM, single dose, luciferase reporter, cells without SFRP-1 (specificity control)

Row | Compound | IC50 [1] | EC50 [2] | fold induction at 10 µM [2] | fold induction at 15 µM [2, 3] | fold induction at 15 µM [2, 4] | fold induction at 15 µM [2, 5] | fold induction at 15 µM [2, 6]
1 | O=C(c1ccc(F)cc1)N1CCC(NS(=O)(=O)c2cc(S(=O)(=O)c3ccccc3)ccc2Cl)CC1 [Example 656, 2-chloro-N-[1-(4-fluorobenzoyl)piperidin-4-yl]-5-(phenylsulfonyl)benzenesulfonamide] | 2800 nM | 11700 nM | 2.2 |  |  |  | 
2 | CCc1ccc(S(=O)(=O)c2ccccc2)cc1S(=O)(=O)NCCCOC [Example 227, 2-ethyl-N-(3-methoxypropyl)-5-(phenylsulfonyl)benzenesulfonamide] | 4000 nM |  |  | 2.7 | 0.8 |  | 
3 | CN(CCNS(=O)(=O)c1cc(S(=O)(=O)c2ccccc2)ccc1C(F)(F)F)C(=O)c1ccc(C(F)(F)F)c(F)c1 [Example 847, 3-Fluoro-N-methyl-N-[2-({[5-(phenylsulfonyl)-2-(trifluoromethyl)phenyl]sulfonyl}amino)ethyl]-4-(trifluoromethyl)benzamide] | 2200 nM |  | 2.4 |  |  |  | 
4 | CC(C)c1ccc(S(=O)(=O)c2ccc(F)cc2)cc1S(=O)(=O)NCCC1CCOCC1 [Example 322, 5-[(4-fluorophenyl)sulfonyl]-2-isopropyl-N-(2-tetrahydro-2H-pyran-4-ylethyl)benzenesulfonamide] | 600 nM |  |  | 2.5 | 1.1 |  | 
5 | O=S(=O)(NC1Cc2ccccc2C1)c1cc(S(=O)(=O)c2ccccc2)ccc1C(F)(F)F [Example 772, N-(2,3-dihydro-1H-inden-2-yl)-5-(phenylsulfonyl)-2-(trifluoromethyl)benzenesulfonamide] | 80 nM |  | 1.2 |  |  |  | 
6 | CCc1ccc(S(=O)(=O)c2ccc(F)cc2)cc1S(=O)(=O)NC(C)C(O)c1ccccc1 (stereo not drawn) [Example 392, 2-ethyl-5-[(4-fluorophenyl)sulfonyl]-N-[(trans)-2-hydroxy-1-methyl-2-phenylethyl]benzenesulfonamide] | 4000 nM |  |  | 2.8 | 1 |  | 
7 | CC(C)(C)OC(=O)N1CSC[C@H]1C(=O)N1CCC(NS(=O)(=O)c2cc(S(=O)(=O)c3ccccc3)ccc2C(F)(F)F)CC1 [Example 1055, tert-butyl (4R)-4-{[4-({[5-(phenylsulfonyl)-2-(trifluoromethyl)phenyl]sulfonyl}amino)piperidin-1-yl]carbonyl}-1,3-thiazolidine-3-carboxylate] | 50 nM | 96 nM |  |  |  |  | 
8 | CSc1ccc(C(=O)N2CCC(NS(=O)(=O)c3cc(S(=O)(=O)c4ccccc4)ccc3C(F)(F)F)CC2)cc1 [Example 1050, N-{1-[4-(methylthio)benzoyl]piperidin-4-yl}-5-(phenylsulfonyl)-2-(trifluoromethyl)benzenesulfonamide] | 170 nM | 660 nM |  |  |  |  | 
9 | CC(C)(C)c1ccc(C(=O)N2CCC(NS(=O)(=O)c3cc(S(=O)(=O)c4cccc(O)c4)ccc3C(F)(F)F)CC2)cc1 [Example 764, N-[1-(4-tert-butylbenzoyl)piperidin-4-yl]-5-[(3-hydroxyphenyl)sulfonyl]-2-(trifluoromethyl)benzenesulfonamide] | 270 nM | 463 nM | 0.6 |  |  |  | 
10 | CC(C)(C)OC(=O)N1CC[C@H](NS(=O)(=O)c2cc(S(=O)(=O)c3ccccc3)ccc2C(F)(F)F)C1 [Example 794, tert-butyl(3S)-3-({[5-(phenylsulfonyl)-2-(trifluoromethyl)phenyl]sulfonyl}amino)pyrrolidine-1-carboxylate] | 100 nM | 534 nM | 3.3 |  |  |  | 
11 | COc1ccc(NC(=O)N(C)CCNS(=O)(=O)c2cc(S(=O)(=O)c3ccccc3)ccc2C(F)(F)F)cc1 [Example 830, N-{2-[{[(4-methoxyphenyl)amino]carbonyl}(methyl)amino]ethyl}-5-(phenylsulfonyl)-2-(trifluoromethyl)benzenesulfonamide] | 600 nM | 1870 nM | 3.3 |  |  |  | 
12 | CN(CCO)CCNS(=O)(=O)c1cc(S(=O)(=O)c2ccccc2)ccc1C(F)(F)F [Example 905, N-{2-[(2-hydroxyethyl)(methyl)amino]ethyl}-5-(phenylsulfonyl)-2-(trifluoromethyl)benzenesulfonamide] | 2600 nM | 3660 nM | 1.5 |  |  |  | 
13 | CNC(=O)CN1CCC(NS(=O)(=O)c2cc(S(=O)(=O)c3ccccc3)ccc2C(F)(F)F)CC1 [Example 1083, N-methyl-2-[4-({[5-(phenylsulfonyl)-2-(trifluoromethyl)phenyl]sulfonyl}amino)piperidin-1-yl]acetamide] | 150 nM | 366 nM |  |  |  |  | 
14 | CC(C)c1ccc(S(=O)(=O)c2ccc(F)cc2)cc1S(=O)(=O)NC1CCNCC1 [Example 520, 5-[(4-fluorophenyl)sulfonyl]-2-isopropyl-N-piperidin-4-ylbenzenesulfonamide] | 2400 nM |  |  |  |  | 3.3 | 1.1
15 | Cc1cccc(Cl)c1S(=O)(=O)c1ccc(C(C)C)c(S(=O)(=O)NCCc2ccccn2)c1 [Example 578, 5-[(2-chloro-6-methylphenyl)sulfonyl]-2-isopropyl-N-(2-pyridin-2-ylethyl)benzenesulfonamide] | 600 nM |  |  |  |  | 2.8 | 1.2
16 | COc1ccccc1C(=O)N1CCC(NS(=O)(=O)c2cc(S(=O)(=O)c3ccccc3)ccc2C(F)(F)F)CC1 [Example 703, N-[1-(2-methoxybenzoyl)piperidin-4-yl]-5-(phenylsulfonyl)-2-(trifluoromethyl)benzenesulfonamide] | 160 nM | 1200 nM | 4.8 |  |  |  | 
17 | COc1ccc(C(=O)N2CCC(NS(=O)(=O)c3cc(S(=O)(=O)c4ccccc4)ccc3C)CC2)cc1 [Example 467, N-[1-(4-methoxybenzoyl)piperidin-4-yl]-2-methyl-5-(phenylsulfonyl)benzenesulfonamide] | 1900 nM |  |  | 2.3 | 1 |  | 
18 | Cc1ccc(S(=O)(=O)c2ccccc2)cc1S(=O)(=O)NC1CCN(C(=O)C2CCCCC2)CC1 [Example 471, N-[1-(cyclohexylcarbonyl)piperidin-4-yl]-2-methyl-5-(phenylsulfonyl)benzenesulfonamide] | 2200 nM |  |  | 2.1 | 1.1 |  | 
19 | CC(C)c1ccc(S(=O)(=O)c2ccc(F)cc2)cc1S(=O)(=O)NC1CCN(C(=O)C2CC2)CC1 [Example 530, N-[1-(cyclopropylcarbonyl)piperidin-4-yl]-5-[(4-fluorophenyl)sulfonyl]-2-isopropylbenzenesulfonamide] | 700 nM |  |  |  |  | 3 | 1
20 | CC(C)c1ccc(S(=O)(=O)c2cccc(C(F)(F)F)c2)cc1S(=O)(=O)NCCc1ccccn1 [Example 508, 2-isopropyl-N-(2-pyridin-2-ylethyl)-5-{[3-(trifluoromethyl)phenyl]sulfonyl}benzenesulfonamide] | 1300 nM |  |  |  |  | 2.3 | 0.9
21 | COc1cccc(S(=O)(=O)c2ccc(C)c(S(=O)(=O)NCCc3ccccn3)c2)c1OC [Example 422, 5-[(2,3-dimethoxyphenyl)sulfonyl]-2-methyl-N-(2-pyridin-2-ylethyl)benzenesulfonamide] | 2800 nM |  |  | 1.9 | 1.2 |  | 
22 | Cc1ccccc1S(=O)(=O)c1ccc(C(C)C)c(S(=O)(=O)NC2CCOCC2)c1 [Example 541, 2-isopropyl-5-[(2-methylphenyl)sulfonyl]-N-(tetrahydro-2H-pyran-4-yl)benzenesulfonamide] | 1500 nM |  |  |  |  | 3.5 | 1.2
23 | CS(=O)(=O)N1CCC[C@H]1C(=O)N1CCC(NS(=O)(=O)c2cc(S(=O)(=O)c3ccccc3)ccc2C(F)(F)F)CC1 [Example 1075, N-{1-[1-(methylsulfonyl)-L-prolyl]piperidin-4-yl}-5-(phenylsulfonyl)-2-(trifluoromethyl)benzenesulfonamide] | 30 nM | 114 nM |  |  |  |  | 
24 | O=S(=O)(NCCO)c1cc(S(=O)(=O)c2ccccc2)ccc1C(F)(F)F [Example 681, N-(2-hydroxyethyl)-5-(phenylsulfonyl)-2-(trifluoromethyl)benzenesulfonamide] | 1100 nM | 4300 nM | 3.4 |  |  |  | 
25 | CC(C)c1ccc(S(=O)(=O)c2ccc(F)cc2)cc1S(=O)(=O)NCC(O)c1cccnc1 (centres unmarked) [Example 731, 5-[(4-fluorophenyl)sulfonyl]-N-(2-hydroxy-2-pyridin-3-ylethyl)-2-isopropylbenzenesulfonamide] | 1900 nM |  | 3.3 |  |  |  | 
26 | O=S(=O)(NCCc1ccccn1)c1cc(S(=O)(=O)c2ccccc2)ccc1Br [Example 592, 2-bromo-5-(phenylsulfonyl)-N-(2-pyridin-2-ylethyl)benzenesulfonamide] | 1000 nM |  |  |  |  | 3.1 | 1.1
27 | CNc1ccc(S(=O)(=O)c2ccc(C(C)C)c(S(=O)(=O)NCCc3ccccn3)c2)c(C)c1 [Example 599, 2-isopropyl-5-{[2-methyl-4-(methylamino)phenyl]sulfonyl}-N-(2-pyridin-2-ylethyl)benzenesulfonamide] | 600 nM |  |  |  |  | 4.2 | 1.4

Reference: patent publication US20060276464A1, “Diarylsulfone sulfonamides and use thereof” (Wyeth, priority 2005, published 2006)
